“Also recorded” adds a separate entry of the source.
Key:
[1] = system: adults with Pompe disease; test: Study ATB200-02: MIP, MEP and other pulmonary measures; type: in vivo, human
Description: Mean CFBL in % predicted sitting FVC was generally stable (CFBL±3% points) for up to 48 months of follow-up in the ERT-experienced cohorts (FIG. 47A, Table 26B), with improvements (CFBL >3% points) at Months 48 in 66.7% of ERT-experienced and 75% of ERT-naïve patients.
In the ERT-naïve cohort, mean CFBL in % predicted sitting FVC improved at 3 months and then remained generally stable up to 48 months of follow up (FIG. 47B, Table 26B), except for one patient who experienced a large drop in % predicted sitting FVC at Month 21, which returned to previous levels at the following visit at Month 24. Mean % predicted sitting FVC improvements were more marked in the ERT-naïve cohort compared with the ERT-experienced cohort over 48 months of follow up (FIG. 47B, Table 26B). […] Percent predicted sitting FVC data were supported by similar outcomes in other pulmonary measures including % predicted maximum inspiratory pressure (MIP) and MEP.

[2] = in vivo
Description: Mean (SD) duration of treatment was 37.2 (14.48), 19.9 (4.13) and 36.9 (12.14) months in cohorts 1 (prior ERT 2-6 years), 4 (prior ERT ≥7 years) and 3 (ERT naive), respectively.
Mean (SD) duration of treatment was 46.3 (22.86) months.

[3] = system: adults with Pompe disease; test: Study ATB200-02: urine Hex4; conditions: for mean reduction from baseline in urine Hex4: b512 prints a minus sign;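 as to all read-outs here: Hex4 is the urine glucose tetrasaccharide biomarker, measured at regular intervals during study follow-up and compared with each patient's baseline value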
Description: (§1) The change from baseline (CFBL) in 6MWD, % predicted sitting FVC, manual muscle test (MMT) and biomarkers—urine glucose tetrasaccharide (Hex4) and serum creatine kinase (CK)—were assessed at regular intervals.

[4] = system: adults with Pompe disease; test: Study ATB200-02: plasma/serum creatine kinase (CK); conditions: for mean reduction from baseline in plasma CK: b512 prints a minus sign
Description: as §1

[5] = parameters: species or system human; conditions: in vivo
Description: Concomitant medications and nondrug therapies were also be recorded. […] Safety Analyses. Safety data was summarized using counts and percentages for categorical data and descriptive statistics (mean, standard deviation, median, minimum, maximum) for continuous data.

[6] = Ambulatory ERT-experienced, 12 months
[7] = Ambulatory ERT-experienced, 24 months
[8] = Ambulatory ERT-experienced, 36 months
[9] = Ambulatory ERT-experienced, 48 months
[10] = Ambulatory ERT-naïve, 12 months
[11] = Ambulatory ERT-naïve, 24 months
[12] = Ambulatory ERT-naïve, 36 months
[13] = Ambulatory ERT-naïve, 48 months
[14] = Non-ambulatory ERT-experienced, 12 months
[15] = Non-ambulatory ERT-experienced, 24 months
[16] = Non-ambulatory ERT-experienced, 36 months
[17] = Non-ambulatory ERT-experienced, 48 months
[18] = Cohort 2 (non-ambulatory ERT-experienced), 12 months, listed as cipaglucosidase alfa plus miglustat
[19] = Cohort 2 (non-ambulatory ERT-experienced), 12 months, listed as cipaglucosidase alfa/miglustat
[20] = Cohort 2, 24 months, listed as cipaglucosidase alfa plus miglustat
[21] = Cohort 2, 24 months, listed as cipaglucosidase alfa/miglustat
[22] = Cohort 2, 36 months, listed as cipaglucosidase alfa plus miglustat
[23] = Cohort 2, 36 months, listed as cipaglucosidase alfa/miglustat
[24] = Cohort 2, 48 months, listed as cipaglucosidase alfa plus miglustat
[25] = Cohort 2, 48 months, listed as cipaglucosidase alfa/miglustat

With “ATB200/miglustat: two-component therapy: cipaglucosidase alfa (ATB200) administered in conjunction with miglustat (AT2221), a stabilizer of cipaglucosidase alfa” the “MEP / MIP outcome” value ([1]; 12, 24, 36, and 48 months, listed as cipaglucosidase alfa/miglustat) was “maximum expiratory pressure (MEP) results that also improved numerically from baseline; also recorded: MIP improved numerically in ERT-naïve patients”, the “Percent predicted Sniff Nasal Inspiratory Pressure, CFBL mean” value [1, 6] was 2.1% and the “Percent predicted maximum expiratory pressure, CFBL mean” value [1, 6] was 9.4%. The “Percent predicted maximum inspiratory pressure, CFBL mean” value [1, 6] was 3.7%, the “Percent predicted Sniff Nasal Inspiratory Pressure, CFBL mean” value [1, 7] was 5.3% and the “Percent predicted maximum expiratory pressure, CFBL mean” value [1, 7] was 16.8%. For the same substance, the “Percent predicted maximum inspiratory pressure, CFBL mean” value [1, 7] was 4.5%, the “Percent predicted Sniff Nasal Inspiratory Pressure, CFBL mean” value [1, 8] was −2.3% and the “Percent predicted maximum expiratory pressure, CFBL mean” value [1, 8] was 13.7%. For the same substance, the “Percent predicted maximum inspiratory pressure, CFBL mean” value [1, 8] was −0.5%, the “Percent predicted Sniff Nasal Inspiratory Pressure, CFBL mean” value [1, 9] was 7.3% and the “Percent predicted maximum expiratory pressure, CFBL mean” value [1, 9] was 17.9%. The “Percent predicted maximum inspiratory pressure, CFBL mean” value [1, 9] was −3.8%, the “Percent predicted Sniff Nasal Inspiratory Pressure, CFBL mean” value [1, 10] was 9.4% and the “Percent predicted maximum expiratory pressure, CFBL mean” value [1, 10] was 11.6%. The “Percent predicted maximum inspiratory pressure, CFBL mean” value [1, 10] was 8.0%, the “Percent predicted Sniff Nasal Inspiratory Pressure, CFBL mean” value [1, 11] was 8.1% and the “Percent predicted maximum expiratory pressure, CFBL mean” value [1, 11] was 17.9%. The “Percent predicted maximum inspiratory pressure, CFBL mean” value [1, 11] was 18.7%, the “Percent predicted Sniff Nasal Inspiratory Pressure, CFBL mean” value [1, 12] was 4.3% and the “Percent predicted maximum expiratory pressure, CFBL mean” value [1, 12] was 14.2%. For the same substance, the “Percent predicted maximum inspiratory pressure, CFBL mean” value [1, 12] was 12.5%, the “Percent predicted Sniff Nasal Inspiratory Pressure, CFBL mean” value [1, 13] was 4.6% and the “Percent predicted maximum expiratory pressure, CFBL mean” value [1, 13] was 24.8%. The “Percent predicted maximum inspiratory pressure, CFBL mean” value [1, 13] was 16.1%, the “Percent predicted Sniff Nasal Inspiratory Pressure, CFBL mean” value [1, 14] was 4.5% and the “Percent predicted maximum expiratory pressure, CFBL mean” value [1, 14] was 10.6%. For the same substance, the “Percent predicted maximum inspiratory pressure, CFBL mean” value [1, 14] was 1.1%, the “Percent predicted Sniff Nasal Inspiratory Pressure, CFBL mean” value [1, 15] was 7.8% and the “Percent predicted maximum expiratory pressure, CFBL mean” value [1, 15] was 21.1%. The “Percent predicted maximum inspiratory pressure, CFBL mean” value [1, 15] was 3.3%, the “Percent predicted Sniff Nasal Inspiratory Pressure, CFBL mean” value [1, 16] was −0.4% and the “Percent predicted maximum expiratory pressure, CFBL mean” value [1, 16] was 11.5%. For the same substance, the “Percent predicted maximum inspiratory pressure, CFBL mean” value [1, 16] was −0.4%, the “Percent predicted Sniff Nasal Inspiratory Pressure, CFBL mean” value [1, 17] was −4.1% and the “Percent predicted maximum expiratory pressure, CFBL mean” value [1, 17] was 21.0%. For the same substance, the “Percent predicted maximum inspiratory pressure, CFBL mean” value [1, 17] was 3.9%, the “patients with nasopharyngitis and with diarrhea (most common TEAEs)” value [2] was 3 patients and the “Urinary Hex4, % CFBL mean” value [3, 6] was −36.11%. For the same substance, the “Urinary Hex4, % CFBL mean” value [3, 7] was −11.8%, the “Urinary Hex4, % CFBL mean” value [3, 8] was −35.1% and the “Urinary Hex4, % CFBL mean” value [3, 9] was −4.0%. For the same substance, the “Urinary Hex4, % CFBL mean” value [3, 10] was −40.7%, the “Urinary Hex4, % CFBL mean” value [3, 11] was −49.5% and the “Urinary Hex4, % CFBL mean” value [3, 12] was −39.3%. The “Urinary Hex4, % CFBL mean” value [3, 13] was −39.9%, the “mean reduction from baseline in urine Hex4” value [3, 18] was 15.6% and the “mean reduction from baseline in urine Hex4” value [3, 19] was −15.6%. The “mean reduction from baseline in urine Hex4” value [3, 20] was 34.1%, the “mean reduction from baseline in urine Hex4” value [3, 21] was −34.1% and the “mean reduction from baseline in urine Hex4” value [3, 22] was 36.5%. For the same substance, the “mean reduction from baseline in urine Hex4” value [3, 23] was −36.5%, the “mean reduction from baseline in urine Hex4” value [3, 24] was 9.4% and the “mean reduction from baseline in urine Hex4” value [3, 25] was −4.0%. The “patients with abnormal baseline Hex4 who had normal Hex4 levels at Month 48” value ([3]; ERT-experienced (four of five)) was 80.0%, the “patients whose urine Hex4 decreased numerically from baseline (n/N)” value ([3]; ERT-experienced, 12 months) was 16/16 and the “patients whose urine Hex4 decreased numerically from baseline (n/N)” value ([3]; ERT-experienced, 24 months) was 11/14. For the same substance, the “patients whose urine Hex4 decreased numerically from baseline (n/N)” value ([3]; ERT-experienced, 36 months) was 11/12, the “patients whose urine Hex4 decreased numerically from baseline (n/N)” value ([3]; ERT-experienced, 48 months) was 6/9 and the “patients with abnormal baseline Hex4 who returned to normal Hex4 levels at Month 48” value ([3]; ERT-naïve ambulatory (one of four)) was 25.0%. For the same substance, the “patients whose urine Hex4 decreased numerically from baseline (n/N)” value ([3]; ERT-naïve, 12 months) was 5/6, the “patients whose urine Hex4 decreased numerically from baseline (n/N)” value ([3]; ERT-naïve, 24 months) was 5/6 and the “patients whose urine Hex4 decreased numerically from baseline (n/N)” value ([3]; ERT-naïve, 36 months) was 4/5. For the same substance, the “patients whose urine Hex4 decreased numerically from baseline (n/N)” value ([3]; ERT-naïve, 48 months) was 4/5, the “Urinary Hex4, % CFBL mean” value [3, 14] was −15.6% and the “Urinary Hex4, % CFBL mean” value [3, 15] was −34.1%. For the same substance, the “Urinary Hex4, % CFBL mean” value [3, 16] was −36.5%, the “Urinary Hex4, % CFBL mean” value [3, 17] was −9.4 ) % and the “Serum creatine kinase, % CFBL mean” value [4, 6] was −20.5%. For the same substance, the “Serum creatine kinase, % CFBL mean” value [4, 7] was −29.9%, the “Serum creatine kinase, % CFBL mean” value [4, 8] was −30.0% and the “Serum creatine kinase, % CFBL mean” value [4, 9] was −35.3%. The “Serum creatine kinase, % CFBL mean” value [4, 10] was −50.6%, the “Serum creatine kinase, % CFBL mean” value [4, 11] was −46.5% and the “Serum creatine kinase, % CFBL mean” value [4, 12] was −50.7%. The “Serum creatine kinase, % CFBL mean” value [4, 13] was −35.9%, the “mean reduction from baseline in plasma CK” value [4, 18] was 20.8% and the “mean reduction from baseline in plasma CK” value [4, 19] was −20.8%. For the same substance, the “mean reduction from baseline in plasma CK” value [4, 20] was 25.3%, the “mean reduction from baseline in plasma CK” value [4, 21] was −25.3% and the “mean reduction from baseline in plasma CK” value [4, 22] was 27.1%. For the same substance, the “mean reduction from baseline in plasma CK” value [4, 23] was −27%, the “mean reduction from baseline in plasma CK” value [4, 24] was 23.7% and the “mean reduction from baseline in plasma CK” value [4, 25] was −23.7%. For the same substance, the “patients with abnormal baseline CK who had normal CK levels at Month 48” value ([4]; ERT-experienced (two of six)) was 33.3%, the “patients whose plasma CK decreased numerically from baseline (n/N)” value ([4]; ERT-experienced, 12 months) was 13/15 and the “patients whose plasma CK decreased numerically from baseline (n/N)” value ([4]; ERT-experienced, 24 months) was 14/15. The “patients whose plasma CK decreased numerically from baseline (n/N)” value ([4]; ERT-experienced, 36 months) was 9/11, the “patients whose plasma CK decreased numerically from baseline (n/N)” value ([4]; ERT-experienced, 48 months) was 8/9 and the “CK status at Month 48 of patients with abnormal baseline CK” value ([4]; ERT-naïve (two of five abnormal at baseline)) was “remained abnormal at Month 48”. The “patients whose plasma CK decreased numerically from baseline (n/N)” value ([4]; ERT-naïve, 12 months) was 6/6, the “patients whose plasma CK decreased numerically from baseline (n/N)” value ([4]; ERT-naïve, 24 months) was 6/6 and the “patients whose plasma CK decreased numerically from baseline (n/N)” value ([4]; ERT-naïve, 36 months) was 5/5. The “patients whose plasma CK decreased numerically from baseline (n/N)” value ([4]; ERT-naïve, 48 months) was 4/5, the “Serum creatine kinase, % CFBL mean” value [4, 14] was −20.8% and the “Serum creatine kinase, % CFBL mean” value [4, 15] was −25.3%. The “Serum creatine kinase, % CFBL mean” value [4, 16] was −27.1% and the “Serum creatine kinase, % CFBL mean” value [4, 17] was −23.7%.
For alglucosidase alfa [reference compound], the “participants with infusion (injection) associated reactions (IARs)” value [5] was 26% and the “patients who discontinued treatment due to an adverse event” value [5] was 2.6%.

— patent publication US20260041744A1, “Methods for Treating Pompe Disease” (Amicus Therapeutics, Inc., priority 2022, published 2026)
